Data published in publication PMC11249637, “Interaction of the Atypical Tetracyclines Chelocardin and Amidochelocardin with Renal Drug Transporters” (ACS Pharmacology & Translational Science, 2024).

Key:
mOct1 = molecular target: T1, mOct1 (Mus musculus, UniProt O08966); assay: Three-point uptake (substrate assessment) in mOct1-overexpressing HEK293 cells; format: in vitro ADME
T1 construct: expressed in transfected cells; host or cells: HEK293
T1 sequence (O08966 1-556): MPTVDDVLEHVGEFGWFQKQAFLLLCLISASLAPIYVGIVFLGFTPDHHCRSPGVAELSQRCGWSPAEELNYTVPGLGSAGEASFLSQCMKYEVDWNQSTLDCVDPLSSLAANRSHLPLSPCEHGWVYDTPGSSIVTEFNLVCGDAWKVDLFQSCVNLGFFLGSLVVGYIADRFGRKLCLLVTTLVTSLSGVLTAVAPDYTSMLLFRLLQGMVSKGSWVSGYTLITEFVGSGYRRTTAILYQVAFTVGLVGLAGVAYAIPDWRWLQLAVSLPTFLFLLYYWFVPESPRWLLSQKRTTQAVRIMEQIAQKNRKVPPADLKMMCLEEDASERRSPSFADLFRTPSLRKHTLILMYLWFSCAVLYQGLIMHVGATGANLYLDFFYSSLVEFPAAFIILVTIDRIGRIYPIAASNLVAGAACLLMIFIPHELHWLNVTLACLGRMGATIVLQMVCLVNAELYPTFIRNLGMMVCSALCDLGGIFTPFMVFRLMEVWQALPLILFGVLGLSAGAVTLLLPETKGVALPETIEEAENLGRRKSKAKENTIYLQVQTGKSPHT
Protocol: This is important to gain a better understanding of the underlying mechanisms of secretion into urine. Therefore, we assessed the amount of compound taken up by the vector and transporter cells at three different concentrations (1, 10, and 100 μM for mOat1 and mOct1; 0.1, 1, and 10 μM for mOat3) and at two different incubation periods (1 and 5 min for mOat1 and mOct1; 5 and 10 min for mOat3).
The incubation buffer contained CHD and CDCHD in a final concentration of 1, 10, and 100 μM. After 1 and 5 min, the incubation was terminated. In addition, the probe inhibitor decynium22 (50 μM) was added in one concentration to 10 μM CHD and CDCHD, respectively, and after 1 and 5 min, the incubation was stopped. Inhibition of mOct1-mediated ^3H-MPP (10 μM) uptake by 50 μM decynium22 was performed as a control experiment. After 1 min, the incubation was terminated. All experiments were conducted in triplicate.
First, a calibration curve was prepared by spiking different concentrations of CHD and CDCHD into the cell matrix. Caffeine was used as an internal standard. In addition, quality control samples (QCs) were prepared for CHD and CDCHD in a cell matrix. The following extraction procedures were used: 300 μL of acetonitrile/water (1:1) is added to the cell pellet (sample or calibration/QC sample) for 15 min at 2000 rpm on an Eppendorf MixMate vortex mixer. 10 μL of this extracted sample is used for further analysis. 10 μL of the extracted cell sample is further extracted with 25 μL of a mixture of methanol/acetonitrile (2:1) containing 12.5 ng/mL caffeine as an internal standard (on ice) for 5 min at 2000 rpm on an Eppendorf MixMate vortex mixer. Then, samples were spun down at 15,870 × g for 10 min. Supernatants were transferred to standard HPLC glass vials. Samples were analyzed using an Agilent 1290 Infinity II HPLC system coupled to an AB Sciex QTrap6500plus mass spectrometer. LC conditions were as follows: column: Agilent Zorbax Eclipse Plus C18, 50 × 2.1 mm, 1.8 μm; temperature: 30°C; injection volume: 5 μL per sample; flow rate: 700 μL/min. Samples were run under the following conditions. Solvents: A: 100% water +0.1% formic acid; solvent B: 100% acetonitrile +0.1% formic acid. The gradient for CDCHD was as follows: 99% A at 0 min, 99% A until 0.1 min, 99–90% A from 0.1 to 1.0 min, 90–50% A from 1.0 to 2.4 min, 50–35% A from 2.4 to 2.7 min, 35–0% A from 2.7 until 4.5 min, 0% A until 5.5 min, 0–99% from 5.5 to 5.7 min, 99% A until 6.0 min. The gradient for CHD was as follows: 99% A at 0 min, 99% A until 0.1 min, 99–90% A from 0.1 to 1.0 min, 90–55% A from 1.0 to 2.3 min, 55–40% A from 2.3 to 2.5 min, 40–0% A from 2.5 until 4.5 min, 0% A until 5.5 min, 0–99% from 5.5 to 5.7 min, 99% A until 6.0 min. Mass transitions are depicted in Table S2.
For statistical testing of differences in uptake ratio or for the inhibitory effect, an ordinary one-way ANOVA test was performed using GraphPad Prism 9.5.1 software. For statistical testing of difference in uptake on vector- or transporter-overexpressing cells, an ordinary two-way ANOVA test was performed using GraphPad Prism 9.5.1 software. Michaelis–Menten kinetics were determined using the Michaelis–Menten algorithm of GraphPad Prism 9.5.1 software. Image resolution was adjusted by using GIMP software.

hMRP2 = molecular target: T2, hMRP2 (Homo sapiens, UniProt Q92887); assay: Two-point inhibition of hMRP2-mediated efflux of CDCF in transfected HEK293 cells; format: in vitro ADME; conditions: 1 and 10 μM; CDCF-DA 5 μM, efflux 10 min
T2 construct: expressed in transfected cells; host or cells: HEK293
Protocol: Well-characterized mOct1-, mOct2-, mOat1-, mOat2-, mOat3-, mMate1-, hOAT1-, hOAT3-, hOAT4-, hMRP2-, mMdr1a- and mMdr1b-transfected HEK293 cells and the respective vector-transfected control HEK293 cells were used.[42],[51],[52] All HEK293 cells (transporter-transfected and vector-transfected) were cultured in DMEM (Sigma, high glucose, 10% FBS, 1% penicillin (10,000 Units/mL)/streptomycin (10 mg/mL)) at 37°C under 5% CO2 in humidified atmosphere. The cells were routinely checked for the absence of mycoplasma infection. For the preparation of HEK293 cell monolayers, 24-well plates were pretreated with a poly-D-lysine hydrobromide solution (0.1 mg/mL). Each well was coated with 0.5 mL of poly-D-lysine solution and incubated for at least 15 min. […]
After preloading, the incubation buffer was removed, cells were washed twice with cold HBSS incubation buffer, and for the efflux, 0.2 mL of incubation buffer was added to each well containing the nonlabeled CHD and CDCHD or reference inhibitor (Table S1) and incubated at 37 °C for designated time intervals. […] Samples were diluted with incubation buffer, and fluorescence was measured in a 96-well plate (Sarstedt, flat bottom) at an extinction of 490 nm and emission of 535 nm. […]
The inhibitory effect I (%) and the efflux ratio was calculated in the same way described for the uptake assays.

uropathogenic E. coli = test system: uropathogenic E. coli; set-up: method as in PMID 38047701; conditions: cited from earlier work

T2 sequence (Q92887 whole entry): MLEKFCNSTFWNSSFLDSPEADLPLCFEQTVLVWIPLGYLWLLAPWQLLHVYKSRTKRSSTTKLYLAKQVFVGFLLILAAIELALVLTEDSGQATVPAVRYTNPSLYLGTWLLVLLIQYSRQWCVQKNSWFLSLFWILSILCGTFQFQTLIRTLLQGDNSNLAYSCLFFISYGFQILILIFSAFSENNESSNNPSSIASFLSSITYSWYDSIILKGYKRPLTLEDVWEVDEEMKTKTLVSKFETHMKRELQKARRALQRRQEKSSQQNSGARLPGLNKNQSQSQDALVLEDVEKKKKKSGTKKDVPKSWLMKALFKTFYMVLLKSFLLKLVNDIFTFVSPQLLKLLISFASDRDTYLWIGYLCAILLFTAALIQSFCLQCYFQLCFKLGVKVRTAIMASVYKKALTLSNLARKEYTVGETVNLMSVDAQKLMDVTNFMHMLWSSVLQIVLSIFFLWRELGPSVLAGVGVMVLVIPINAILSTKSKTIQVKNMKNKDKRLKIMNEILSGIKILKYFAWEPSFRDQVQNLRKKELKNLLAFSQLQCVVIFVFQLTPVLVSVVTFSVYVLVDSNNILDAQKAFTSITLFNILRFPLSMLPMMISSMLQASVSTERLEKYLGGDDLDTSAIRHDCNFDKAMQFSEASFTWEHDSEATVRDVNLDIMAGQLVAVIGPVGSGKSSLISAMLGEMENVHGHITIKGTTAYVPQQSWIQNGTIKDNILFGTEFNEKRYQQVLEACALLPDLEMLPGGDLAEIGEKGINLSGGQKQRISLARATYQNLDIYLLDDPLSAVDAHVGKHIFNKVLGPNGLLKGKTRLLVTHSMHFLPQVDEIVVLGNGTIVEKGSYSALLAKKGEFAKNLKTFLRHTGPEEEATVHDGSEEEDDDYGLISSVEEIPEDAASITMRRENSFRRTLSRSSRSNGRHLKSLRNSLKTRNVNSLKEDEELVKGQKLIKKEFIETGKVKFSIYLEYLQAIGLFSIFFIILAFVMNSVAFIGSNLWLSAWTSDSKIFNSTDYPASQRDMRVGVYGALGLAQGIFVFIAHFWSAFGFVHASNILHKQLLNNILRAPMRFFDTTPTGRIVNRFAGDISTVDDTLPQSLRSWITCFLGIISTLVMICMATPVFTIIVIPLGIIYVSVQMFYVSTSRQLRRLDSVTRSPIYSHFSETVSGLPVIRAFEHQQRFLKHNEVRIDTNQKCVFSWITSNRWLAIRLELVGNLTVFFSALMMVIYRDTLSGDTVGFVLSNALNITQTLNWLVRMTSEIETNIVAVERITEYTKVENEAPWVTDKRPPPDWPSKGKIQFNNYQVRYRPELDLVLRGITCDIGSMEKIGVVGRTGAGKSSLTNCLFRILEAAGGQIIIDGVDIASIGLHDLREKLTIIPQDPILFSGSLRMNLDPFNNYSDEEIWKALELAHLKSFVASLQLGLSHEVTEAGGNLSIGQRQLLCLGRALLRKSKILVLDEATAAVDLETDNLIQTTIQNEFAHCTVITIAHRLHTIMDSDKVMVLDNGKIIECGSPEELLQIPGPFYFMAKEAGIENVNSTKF

| Structure (SMILES) | substrate of mOct1 (in words) (mOct1) | uptake ratio (cells without vs with decynium22), mOct1 (mOct1; 10 μM compound, 50 μM decynium22, 1 and 5 min) | mOct1: Vmax (mOct1; Michaelis–Menten fit, 1, 10 and 100 μM) | inhibitory effect on hMRP2 (in words) (hMRP2) | effect in ascending urinary tract infection model (in words) (uropathogenic E. coli) | less uptake in the presence of the specific inhibitor decynium22, mOct1 (mOct1; 10 μM compound, 50 μM decynium22, 5 min) |
| --- | --- | --- | --- | --- | --- | --- |
| Cc1ccc2c(C)c3c(c(O)c2c1O)C(=O)[C@@]1(O)C(=O)C(C(N)=O)=C(O)[C@@H](N)[C@H]1C3 [CDCHD, amidochelocardin] | is not a substrate | 1 | 15.0 nM/min | slight inhibitory effect | pronounced effects |  |
| CC(=O)C1=C(O)[C@@H](N)[C@H]2Cc3c(c(O)c4c(O)c(C)ccc4c3C)C(=O)[C@@]2(O)C1=O [CHD, chelocardin] | is a substrate |  |  | slight inhibitory effect | pronounced effects | around 50% |
